{"source": "paper PMC5218480", "about": "(PLoS ONE, 2017)", "test_system": "MV-4-11 cells", "assay": "Gene expression microarray analysis (Affymetrix PrimeView) and GSEA", "type": "cell-based, human", "set-up": "RFU PODN (11730768_x_at) / Fold change /veh PODN (11730768_x_at) / RFU LINC00158 (11744669_a_at) / Fold change /veh LINC00158 (11744669_a_at) / RFU DUSP10 (11751237_a_at) / Fold change /veh DUSP10 (11751237_a_at) / RFU ID3 (11757404_x_at) / Fold change /veh ID3 (11757404_x_at) / RFU PLEKHG5 (11737974_s_at) / Fold change /veh PLEKHG5 (11737974_s_at) / RFU LRRC4B (11730491_at) / Fold change /veh LRRC4B (11730491_at) / RFU GIMAP4 (11747438_a_at) / Fold change /veh GIMAP4 (11747438_a_at) / RFU KRT8 (11758183_x_at) / Fold change /veh KRT8 (11758183_x_at) / RFU CNN1 (11734310_a_at) / Fold change /veh CNN1 (11734310_a_at) / RFU VPS37D (11726825_at) / Fold change /veh VPS37D (11726825_at) / RFU C10orf10 (11716522_x_at) / Fold change /veh C10orf10 (11716522_x_at) / RFU KIR2DL2 /// KIR2DL4 /// KIR2DL5A /// KIR2DL5B /// KIR2DS1 /// KIR2DS2 /// KIR2DS3 /// KIR2DS4 /// KIR3DL3 /// KIR3DL3 /// KIR3DS1 (11738374_at) / Fold change /veh KIR2DL2 /// KIR2DL4 /// KIR2DL5A /// KIR2DL5B /// KIR2DS1 /// KIR2DS2 /// KIR2DS3 /// KIR2DS4 /// KIR3DL3 /// KIR3DL3 /// KIR3DS1 (11738374_at) / RFU C1QL1 (11718748_at) / Fold change /veh C1QL1 (11718748_at) / RFU TMPRSS4 (11747572_a_at) / Fold change /veh TMPRSS4 (11747572_a_at) / RFU HAMP (11756126_x_at) / Fold change /veh HAMP (11756126_x_at) / RFU RNFT2 (11725882_a_at) / Fold change /veh RNFT2 (11725882_a_at) / RFU NR4A2 (11747474_a_at) / Fold change /veh NR4A2 (11747474_a_at) / RFU ABCC12 (11746883_a_at) / Fold change /veh ABCC12 (11746883_a_at) / RFU TMEM136 (11760407_x_at) / Fold change /veh TMEM136 (11760407_x_at) / RFU CLDN22 /// WWC2 (11732394_at) / Fold change /veh CLDN22 /// WWC2 (11732394_at) / RFU HLA-DPB1 (11760878_x_at) / Fold change /veh HLA-DPB1 (11760878_x_at) / RFU SPINT1 (11716480_a_at) / Fold change /veh SPINT1 (11716480_a_at) / RFU GAP43 (11754022_s_at) / Fold change /veh GAP43 (11754022_s_at) / RFU A4GNT (11735810_at) / Fold change /veh A4GNT (11735810_at) / RFU PRB3 (11715151_x_at) / Fold change /veh PRB3 (11715151_x_at) / RFU TUBB4B (11761932_at) / Fold change /veh TUBB4B (11761932_at) / RFU CAPN14 (11732068_a_at) / Fold change /veh CAPN14 (11732068_a_at) / RFU TMCC2 (11721928_a_at) / Fold change /veh TMCC2 (11721928_a_at) / RFU IRGQ (11745062_a_at) / Fold change /veh IRGQ (11745062_a_at) / RFU FAM174B (11720279_a_at) / Fold change /veh FAM174B (11720279_a_at) / RFU TMPRSS4 (11748680_a_at) / Fold change /veh TMPRSS4 (11748680_a_at) / RFU FAM212B (11763350_a_at) / Fold change /veh FAM212B (11763350_a_at) / RFU PLEKHG5 (11743358_a_at) / Fold change /veh PLEKHG5 (11743358_a_at) / RFU ZSCAN30 (11745921_a_at) / Fold change /veh ZSCAN30 (11745921_a_at) / RFU CMKLR1 (11741424_a_at) / Fold change /veh CMKLR1 (11741424_a_at) / RFU LOC101060620 /// MAPK8IP1 (11723275_at) / Fold change /veh LOC101060620 /// MAPK8IP1 (11723275_at) / RFU SPTSSB (11747773_x_at) / Fold change /veh SPTSSB (11747773_x_at) / RFU PRSS12 (11739890_at) / Fold change /veh PRSS12 (11739890_at) / RFU BIN1 (11741810_x_at) / Fold change /veh BIN1 (11741810_x_at) / RFU WNT11 (11732464_a_at) / Fold change /veh WNT11 (11732464_a_at) / RFU C10orf10 (11716521_a_at) / Fold change /veh C10orf10 (11716521_a_at) / RFU C5orf56 (11738089_at) / Fold change /veh C5orf56 (11738089_at) / RFU CYB561 (11721691_x_at) / Fold change /veh CYB561 (11721691_x_at) / RFU ANKRD19P (11752326_a_at) / Fold change /veh ANKRD19P (11752326_a_at) / RFU OR2T12 /// OR2T33 /// OR2T8 (11738714_s_at) / Fold change /veh OR2T12 /// OR2T33 /// OR2T8 (11738714_s_at) / RFU VCAN (11748164_a_at) / Fold change /veh VCAN (11748164_a_at) / RFU JSRP1 (11732532_at) / Fold change /veh JSRP1 (11732532_at) / RFU KRTAP10-11 (11738290_x_at) / Fold change /veh KRTAP10-11 (11738290_x_at) / RFU MYO3A (11730013_a_at) / Fold change /veh MYO3A (11730013_a_at) / RFU EBF3 (11725865_a_at) / Fold change /veh EBF3 (11725865_a_at) / RFU CAMK2N1 (11719241_x_at) / Fold change /veh CAMK2N1 (11719241_x_at) / RFU C5orf56 (11738088_a_at) / Fold change /veh C5orf56 (11738088_a_at) / RFU OLFML3 (11715873_a_at) / Fold change /veh OLFML3 (11715873_a_at) / RFU LOC100653217 /// NTM (11731650_a_at) / Fold change /veh LOC100653217 /// NTM (11731650_a_at) / RFU MAPK11 (11762145_a_at) / Fold change /veh MAPK11 (11762145_a_at) / RFU FIZ1 (11724087_x_at) / Fold change /veh FIZ1 (11724087_x_at) / RFU OASL (11726364_x_at) / Fold change /veh OASL (11726364_x_at) / RFU SOX15 (11748057_x_at) / Fold change /veh SOX15 (11748057_x_at) / RFU CD79A (11719716_a_at) / Fold change /veh CD79A (11719716_a_at) / RFU HIST1H1D (11736915_at) / Fold change /veh HIST1H1D (11736915_at) / RFU CASKIN2 (11723855_a_at) / Fold change /veh CASKIN2 (11723855_a_at) / RFU LOC730098 (11760151_x_at) / Fold change /veh LOC730098 (11760151_x_at) / RFU OR4N2 (11742367_at) / Fold change /veh OR4N2 (11742367_at) / RFU PRRT2 (11749266_a_at) / Fold change /veh PRRT2 (11749266_a_at) / RFU SNX32 (11753110_a_at) / Fold change /veh SNX32 (11753110_a_at) / RFU CDHR5 (11726645_a_at) / Fold change /veh CDHR5 (11726645_a_at) / RFU RCAN1 (11760418_a_at) / Fold change /veh RCAN1 (11760418_a_at) / RFU FAM167A (11723789_a_at) / Fold change /veh FAM167A (11723789_a_at) / RFU FAM26E (11764081_at) / Fold change /veh FAM26E (11764081_at) / RFU ISYNA1 (11749810_s_at) / Fold change /veh ISYNA1 (11749810_s_at) / RFU ACY1 (11761880_at) / Fold change /veh ACY1 (11761880_at) / RFU 11764098_at / Fold change /veh 11764098_at / RFU SAMD14 (11745864_x_at) / Fold change /veh SAMD14 (11745864_x_at) / RFU NPB (11741838_a_at) / Fold change /veh NPB (11741838_a_at) / RFU TMPRSS6 (11731388_a_at) / Fold change /veh TMPRSS6 (11731388_a_at) / RFU KRTAP10-2 (11738614_at) / Fold change /veh KRTAP10-2 (11738614_at) / RFU ARHGAP8 /// PRR5-ARHGAP8 (11727945_x_at) / Fold change /veh ARHGAP8 /// PRR5-ARHGAP8 (11727945_x_at) / RFU KRTAP5-7 /// NADSYN1 (11734609_at) / Fold change /veh KRTAP5-7 /// NADSYN1 (11734609_at) / RFU RASL12 (11751679_a_at) / Fold change /veh RASL12 (11751679_a_at) / RFU CDKN2B (11736163_a_at) / Fold change /veh CDKN2B (11736163_a_at) / RFU PRF1 (11729649_at) / Fold change /veh PRF1 (11729649_at) / RFU, ZNF638 /// ZNF638-IT1 / Fold change vs veh, ZNF638 /// ZNF638-IT1 / RFU, PANK3 / Fold change vs veh, PANK3 / RFU, SH3YL1 / Fold change vs veh, SH3YL1 / RFU, ZEB2 / Fold change vs veh, ZEB2 / RFU, NRIP1 / Fold change vs veh, NRIP1 / RFU, PTTG1IP / Fold change vs veh, PTTG1IP / RFU, CAPN2 / Fold change vs veh, CAPN2 / RFU, MED14 / Fold change vs veh, MED14 / RFU, SNORA58 / Fold change vs veh, SNORA58 / RFU, C1orf63 / Fold change vs veh, C1orf63 / RFU, LRRFIP1 / Fold change vs veh, LRRFIP1 / RFU, NDUFAF7 / Fold change vs veh, NDUFAF7 / RFU, SLC12A2 / Fold change vs veh, SLC12A2 / RFU, IBTK / Fold change vs veh, IBTK / RFU, ESF1 / Fold change vs veh, ESF1 / Fold change vs veh, TMEM50B / RFU, TAOK1 / Fold change vs veh, TAOK1 / RFU, ACBD3 / Fold change vs veh, ACBD3 / RFU, TMA16 / Fold change vs veh, TMA16 / RFU, RWDD3 / Fold change vs veh, RWDD3 / RFU, BCAT1 / Fold change vs veh, BCAT1 / RFU, EDEM3 / Fold change vs veh, EDEM3 / RFU, TMEM33 / Fold change vs veh, TMEM33 / RFU, WDR75 / Fold change vs veh, WDR75 / RFU, AHCTF1 / Fold change vs veh, AHCTF1 / RFU, TFRC / Fold change vs veh, TFRC / RFU, ZDHHC17 / Fold change vs veh, ZDHHC17 / RFU, NOM1 / Fold change vs veh, NOM1 / RFU, ARL8B / Fold change vs veh, ARL8B / RFU, ZBTB11 / Fold change vs veh, ZBTB11 / RFU, TAMM41 / Fold change vs veh, TAMM41 / RFU, KIAA1704 /// LOC100996395 / Fold change vs veh, KIAA1704 /// LOC100996395 / RFU, ING1 / Fold change vs veh, ING1 / RFU, TRMT61B / Fold change vs veh, TRMT61B / RFU, FUBP3 / Fold change vs veh, FUBP3 / RFU, TP53 / Fold change vs veh, TP53 / RFU, TNKS2 / Fold change vs veh, TNKS2 / RFU, ZFP14 / Fold change vs veh, ZFP14 / RFU, ACTR2 / Fold change vs veh, ACTR2 / RFU, PPP3R1 / Fold change vs veh, PPP3R1 / RFU, PIK3R1 / Fold change vs veh, PIK3R1 / RFU, HNRNPA1 / Fold change vs veh, HNRNPA1 / RFU, RNF170 / Fold change vs veh, RNF170 / RFU, ZNF28 / Fold change vs veh, ZNF28 / RFU, RNGTT / Fold change vs veh, RNGTT / RFU, OGT / Fold change vs veh, OGT / RFU, BRD1 / Fold change vs veh, BRD1 / RFU, MARS / Fold change vs veh, MARS / RFU, ZNF655 / Fold change vs veh, ZNF655 / RFU, FAHD1 / Fold change vs veh, FAHD1 / RFU, BDP1 / Fold change vs veh, BDP1 / RFU, LRRCC1 / Fold change vs veh, LRRCC1 / RFU, ARID1A / Fold change vs veh, ARID1A / RFU, ZNF146 / Fold change vs veh, ZNF146 / RFU, ZNF330 / Fold change vs veh, ZNF330 / RFU, GPN3 / Fold change vs veh, GPN3 / RFU, C9orf123 / Fold change vs veh, C9orf123 / RFU, N4BP2L2 / Fold change vs veh, N4BP2L2 / RFU, ARFIP1 / Fold change vs veh, ARFIP1 / RFU, FAM179B / Fold change vs veh, FAM179B / RFU, BCL10 / Fold change vs veh, BCL10 / RFU, UHRF1BP1L / Fold change vs veh, UHRF1BP1L / RFU, BET1 / Fold change vs veh, BET1 / RFU, CNOT2 / Fold change vs veh, CNOT2 / RFU, ZNF268 / Fold change vs veh, ZNF268 / Fold change vs veh, ZNF507 / RFU, DGCR2 / Fold change vs veh, DGCR2 / RFU, WDSUB1 / Fold change vs veh, WDSUB1 / Fold change vs veh, HSP90B1 /// MIR3652 / RFU, ADSS / Fold change vs veh, ADSS / RFU, GK / Fold change vs veh, GK / RFU, ZNF148 / Fold change vs veh, ZNF148 / RFU, TAF9 / Fold change vs veh, TAF9 / RFU, SLC1A5 / Fold change vs veh, SLC1A5 / RFU, SLMO2 / Fold change vs veh, SLMO2 / RFU, ABCC4 / Fold change vs veh, ABCC4 / RFU, LOC101060439 /// RAP1B / Fold change vs veh, LOC101060439 /// RAP1B / RFU, RFX7 / Fold change vs veh, RFX7 / RFU, GTPBP10 / Fold change vs veh, GTPBP10 / RFU, CNEP1R1 / Fold change vs veh, CNEP1R1 / RFU, BIVM-ERCC5 /// ERCC5 / Fold change vs veh, BIVM-ERCC5 /// ERCC5 / RFU, ILF3 / Fold change vs veh, ILF3 / RFU 11762660_at / Fold change /veh 11762660_at / RFU VCAN (11757783_s_at) / Fold change /veh VCAN (11757783_s_at) / RFU DDX43 (11728927_at) / Fold change /veh DDX43 (11728927_at) / RFU KRT8 (11758188_x_at) / Fold change /veh KRT8 (11758188_x_at) / RFU NKD1 (11759106_at) / Fold change /veh NKD1 (11759106_at) / RFU SRD5A1 (11742802_a_at) / Fold change /veh SRD5A1 (11742802_a_at) / RFU TPSAB1 /// TPSB2 (11721975_s_at) / Fold change /veh TPSAB1 /// TPSB2 (11721975_s_at) / RFU GSTM3 (11746129_a_at) / Fold change /veh GSTM3 (11746129_a_at) / RFU IL23R (11737362_x_at) / Fold change /veh IL23R (11737362_x_at) / RFU TMEM51 (11727254_a_at) / Fold change /veh TMEM51 (11727254_a_at) / RFU PIWIL2 (11732686_x_at) / Fold change /veh PIWIL2 (11732686_x_at) / RFU ORM1 (11744905_x_at) / Fold change /veh ORM1 (11744905_x_at) / RFU CCDC152 (11743942_at) / Fold change /veh CCDC152 (11743942_at) / RFU ECM1 (11717891_a_at) / Fold change /veh ECM1 (11717891_a_at) / RFU IL23R (11748794_a_at) / Fold change /veh IL23R (11748794_a_at) / RFU TNFAIP8L3 (11732012_x_at) / Fold change /veh TNFAIP8L3 (11732012_x_at) / RFU MBOAT4 (11741988_at) / Fold change /veh MBOAT4 (11741988_at) / RFU 11764193_at / Fold change /veh 11764193_at / RFU TMEM53 (11763286_at) / Fold change /veh TMEM53 (11763286_at) / RFU MAGEB2 (11727129_at) / Fold change /veh MAGEB2 (11727129_at) / RFU TMEM200A (11744735_a_at) / Fold change /veh TMEM200A (11744735_a_at) / RFU CCDC152 (11751479_a_at) / Fold change /veh CCDC152 (11751479_a_at) / RFU FAM211A (11726209_a_at) / Fold change /veh FAM211A (11726209_a_at) / RFU RGS16 (11746705_a_at) / Fold change /veh RGS16 (11746705_a_at) / RFU VCAN (11755009_s_at) / Fold change /veh VCAN (11755009_s_at) / RFU RHOB (11743442_s_at) / Fold change /veh RHOB (11743442_s_at) / RFU RGS16 (11720943_a_at) / Fold change /veh RGS16 (11720943_a_at) / RFU RGS16 (11720944_at) / Fold change /veh RGS16 (11720944_at) / RFU, VPS4B / Fold change vs veh, VPS4B / RFU, CREB1 / Fold change vs veh, CREB1 / RFU, DNAJC13 / Fold change vs veh, DNAJC13 / RFU, GNAQ / Fold change vs veh, GNAQ / RFU, CDK5R1 / Fold change vs veh, CDK5R1 / RFU, ZRANB3 / Fold change vs veh, ZRANB3 / RFU, CUL4A / Fold change vs veh, CUL4A / RFU, CCNY / Fold change vs veh, CCNY / RFU, UFL1 / Fold change vs veh, UFL1 / RFU, COG3 / Fold change vs veh, COG3 / RFU, DIAPH2 / Fold change vs veh, DIAPH2 / RFU, SKA2 / Fold change vs veh, SKA2 / RFU, AFF3 / Fold change vs veh, AFF3 / RFU, LMF1 / Fold change vs veh, LMF1 / RFU, IPO11 / Fold change vs veh, IPO11 / RFU, DFFB / Fold change vs veh, DFFB / RFU, FOXP1 / Fold change vs veh, FOXP1 / RFU, CARD8 / Fold change vs veh, CARD8 / RFU, STRN3 / Fold change vs veh, STRN3 / RFU, ADK / Fold change vs veh, ADK / RFU, RASSF2 / Fold change vs veh, RASSF2 / RFU, WIPF1 / Fold change vs veh, WIPF1 / RFU, LARP1B / Fold change vs veh, LARP1B / RFU, RASA1 / Fold change vs veh, RASA1 / RFU, RB1 / Fold change vs veh, RB1 / RFU, PPFIA1 / Fold change vs veh, PPFIA1 / RFU, MAT2A / Fold change vs veh, MAT2A / RFU, CCT5 / Fold change vs veh, CCT5 / RFU, WDR92 / Fold change vs veh, WDR92 / RFU, CUX1 / Fold change vs veh, CUX1 / RFU, TTC7A / Fold change vs veh, TTC7A / RFU, TMEM135 / Fold change vs veh, TMEM135 / RFU, DEPTOR / Fold change vs veh, DEPTOR / RFU, CPM / Fold change vs veh, CPM / RFU, DNAJB6 / Fold change vs veh, DNAJB6 / RFU, CACNA2D3 / Fold change vs veh, CACNA2D3 / RFU, DTX4 / Fold change vs veh, DTX4 / RFU, TFCP2 / Fold change vs veh, TFCP2 / RFU, GMCL1 /// GMCL1P1 / Fold change vs veh, GMCL1 /// GMCL1P1 / RFU, AEBP2 / Fold change vs veh, AEBP2 / RFU, SNHG1 /// SNORD22 /// SNORD25 /// SNORD26 /// SNORD27 /// SNORD28 /// SNORD29 /// SNORD31 / Fold change vs veh, SNHG1 /// SNORD22 /// SNORD25 /// SNORD26 /// SNORD27 /// SNORD28 /// SNORD29 /// SNORD31 / Fold change (Aza/veh), C12orf56 (ProbeSet 11735607_a_at) / Fold change (ACY-1035/veh), C12orf56 (ProbeSet 11735607_a_at) / Fold change (Aza/veh), FGFR1OP (ProbeSet 11751329_s_at) / Fold change (ACY-1035/veh), FGFR1OP (ProbeSet 11751329_s_at) / Fold change (Aza/veh), VPS36 (ProbeSet 11739960_a_at) / Fold change (ACY-1035/veh), VPS36 (ProbeSet 11739960_a_at) / RFU SYPL1 (11715823_x_at) / Fold change /veh SYPL1 (11715823_x_at) / RFU IGFBP7 (11715501_s_at) / Fold change /veh IGFBP7 (11715501_s_at) / RFU REEP3 (11722064_at) / Fold change /veh REEP3 (11722064_at) / RFU IGLL1 (11728026_x_at) / Fold change /veh IGLL1 (11728026_x_at): dose or concentration left out as unconfirmed", "settings": "ProbeSet 11716891_at; LIST B", "data": [{"smiles": "Nc1ncn([C@@H]2O[C@H](CO)[C@@H](O)[C@H]2O)c(=O)n1", "note": "[azacitidine]", "values": [{"measurement": "Fold change vs veh, C9orf123", "value": 1.12}]}]}
